Source: US7910091B2, “System for trapping flying insects with attractant lures” (Woodstream Corporation, priority 2002, dated 2011)

Legend:
[1] = test system: flying insects; assay: Additional trap trials: lactic acid lures vs 1-octen-3-ol, Liberty trap with and without lure (FIG. 5); type: in vivo; conditions: for Insect capture counts (FIG. 5), in words: compared with CO2 only control / with lactic acid lures
Excerpt: Also surprising were the results of a trial running a Mosquito Magnet® Liberty trap (American Biophysics Corporation, East Greenwich, R.I., USA) with and without lactic acid lures. […] The addition of a lactic acid lure increased the capture count to about 4,700 flying insects, a surprising enhancement over the effectiveness of the device using CO2 alone. The trial test data are graphically depicted in FIG. 5.

[2] = test system: A. Albopictus; assay: China test, Mosquito Magnet Liberty traps, catch of A. albopictus; type: in vivo; conditions: with CO2, Liberty trap, July 2002, Wuhu, catching in 12 hours
Excerpt: (§1) Mosquito types found in China include Culex pipiens pallens (majority), A. albopictus, Anopheles sinensis (minority), and […] subalbatus (minority). […] The daily mosquito catch depended mainly on the seasonal distribution of mosquitoes. […] Mosquito Magnet® Liberty traps were used in this example.

[3] = test system: mosquitoes; assay: Hawaii field test of lactic acid lures in Mosquito Magnet traps, total mosquito catch; type: in vivo, Culex quinquefasciatus Aedes albopictus, et al.; conditions: w/CO2, average caught in 48 hours
Procedure: (§2) […] Sample vials containing lactic acid impregnated frits were replaced every 2 days to ensure measurement uniformity. Measured release rates were approximately 4.0 mg/hr to 20 mg/hr. Controls were run with a Professional trap device lacking a lactic acid lure. The number of mosquitoes retained in the catch bag of the insect trapping devices was quantitated for test sample and control runs.
(§3) The comparison between lactic acid/CO2 and CO2 only used as lures in Mosquito Magnet® Professional (PRO) and Liberty traps are shown in Table 8.

[4] = test system: A. albopictus; assay: Hawaii field test of lactic acid lures in Mosquito Magnet traps, A. albopictus catch; type: in vivo, Aedes albopictus; conditions: w/CO2, average caught in 48 hours
Procedure: as §2, §3

[5] = cited from earlier work
[6] = test system: mosquitoes; assay: China test, Mosquito Magnet Liberty traps, total catch of mosquitoes; type: in vivo; conditions: Wuhu
Excerpt: as §1

[7] = test system: Culex pipiens pallens; assay: China indoor test of Lurex; type: in vivo; conditions: CO2 without Lurex, Hefei basement, July 2002, catching in 24 hours
Excerpt: as §1

[8] = @ 25° C.; cited from earlier work
[9] = cited from earlier work; remark: listed apart in the source
[10] = Laboratory release rate test of lactic acid from impregnated frit cartridges in exhaust nozzle; type: physicochemical
Excerpt: Packaging of the sample L-(+)-lactic acid solution was selected with the goal of maximizing efficient dispersal of the lactic acid in the CO2 exhaust plume of the insect trapping device. […] Each frit was impregnated with was 3.5 g to 4.5 g of liquid lactic acid. Release rate testing was initially performed under laboratory conditions to assess the dispersal characteristics of L-(+)-lactic acid from impregnated frit cartridges. The sample vial with its cap removed was placed in a “basket-style” housing having numerous apertures/openings to permit release of lactic acid vapors from the impregnated frit. The housing of the supplemental insect attractant element was inserted into the exhaust nozzle of an insect trapping device. Lactic acid release was measured at two temperatures for comparison purposes. Exhaust plume temperature was set at 87° F. and then 97°°F., accordingly. […] At a constant temperature, here 87°°F., the release rate of lactic acid decreased with time. […] The useful life of a frit cartridge impregnated with liquid L-(+)-lactic acid may vary depending upon the amount of attractant initially loaded into the cartridge, and the environmental conditions to which the cartridge is subjected. The ultimate use- or release-time of a given cartridge can be tailored to meet the release rate needs of a particular environmental condition. […] Longer periods of release are anticipated for polymeric formulations of attractant compositions.

[11] = Acute toxicity LD50 oral rat; type: in vivo
Excerpt: A particularly beneficial aspect of using biochemical lures to trap mosquitoes is the large margin of safety associated therewith, particularly when compared with traditional chemical attractants.

[12] = PRO trap, February to March 2002
[13] = PRO trap, January 2002, listed as Liquid lactic acid
[14] = Liberty trap, February to March 2002
[15] = PRO trap, January 2002, higher release rate

## C=CC(O)CCCCC (stereo not shown) [1-octen-3-ol, reference compound]
[1]
  Insect capture counts (FIG. 5), in words: quite inefficient
[1]; one trial, over a two-day period, CO2 plume generating devices
  Flying insects trapped: less than 100
[2]
  Catch of A. Albopictus: 14
[3]; [12]
  Total catch of mosquitoes: 92
[4]; [12]
  Catch of A. Albopictus: 13
[5]
  LD50/oral/rat: 340 mg/kg
[6]; Hefei, Shanghai, Liberty traps
  Sensitivity of mosquitoes in China to the chemical compared to CO2, in words: do not seem significantly sensitive
[6]; with CO2, Liberty trap, July 2002, China, catching in 12 hours
  Total catch of mosquitoes: 196

## O=C=O [CO2, carbon dioxide]
[7]
  Total catch of mosquitoes (Culex pipiens pallens): 605

## CC(O)C(=O)O (stereo not drawn) [FCC 88, L(+)-lactic acid, 2-hydroxy-propionic acid]
[1]; Liberty trap with CO2 plus lure, two-day period
  Capture count of flying insects: about 4,700
[1]
  Insect capture counts (FIG. 5), in words: substantially improve insect capture counts
[8]
  pH: <2 @ 25 °C
[3]; [13]
  Total catch of mosquitoes: 313.5
[4]; [13]
  Catch of A. Albopictus: 26
[9]
  LD50/dermal/rabbit: 2000 mg/kg
[10]; 87° F., time released 0-48 hrs, impregnated frit
  Release rate: 4.0 to 20 mg/h
[10]; 87° F., time released 3-8 days, impregnated frit
  Release rate: 2.0 to 3.5 mg/h
[10]; 97-100° F., 5-9th day, same sample tested before at 87° F.
  Release rate: 5.0 to 7.1 mg/h
[10]; cartridge of 3.5 g liquid L-(+)-lactic acid, average release rate 5 mg/hr to 10 mg/hr
  Estimated time of use of cartridge: 2 to 4 weeks
[11]
  Times less toxic than 1-octen-3-ol: about 11 times

## CC(O)C(=O)O (stereo not shown) [Solid lactic acid]
[3]; [14]
  Total catch of mosquitoes: 2537
[3]; [12]
  Total catch of mosquitoes: 243
[3]; PRO trap, January 2002
  Total catch of mosquitoes: 136
[3]; [15]
  Total catch of mosquitoes: 384
[4]; [14]
  Catch of A. Albopictus: 12.7
[4]; [12]
  Catch of A. Albopictus: 52
[4]; PRO trap, January 2002
  Catch of A. Albopictus: 30
[4]; [15]
  Catch of A. Albopictus: 116
